Columns and labels:
[1] = target: CHK1 kinase (Homo sapiens (Human), UniProt O14757)
[2] = system: ES-2 cells; assay: Cell growth suppression experiment (ES-2); format: cell-based; settings: Homo sapiens, 48 h, cultured 2 days, CellTiter-Glo 3D
Protocol: ES-2 cells were obtained from the American Type Culture Collection (ATCC). These cells were cultured at 37° C. in the presence of 5% CO2 in a McCoy's 5a medium containing 10% fetal bovine serum and 1% penicillin/streptomycin.
500 cells were seeded for each well in a 384-well plate, and the evaluated compound was added to the final DMSO concentration of 0.1% to culture the cells for 2 days. After completion of the culture, the cell viability rate was calculated using CellTiter-Glo (registered trademark) 3D Reagent (Promega, G968B).

[3] = Liposome encapsulation test; format: physicochemical; settings: concentration upon compound introduction 2 or 3 mg/mL
Protocol: 6.48 g of hydrogenated soybean phosphatidylcholine (COATSOME NC-21E, NOF Corporation), 2.32 g of cholesterol (Sigma) and 2.06 g of distearoylphosphatidylethanolamine-methoxypolyethylene glycol 2000 (SUNBRIGHT DSPE-020CN, NOF Corporation) were dissolved in 560 mL of t-butyl alcohol heated to 65° C. The solution was frozen with dry ice/acetone bath and t-butyl alcohol was then removed by evaporation under reduced pressure to obtain a lipid mixture.
200 mL of 250 mM ammonium sulfate solution was added to the lipid mixture. The resulting mixture was heated to 65° C. and dispersed with a homogenizer (ULTRA-TURRAX, IKA) to obtain a crude liposome dispersion. […] A dialysis cassette (Slide-A-Lyzer G2 Dialysis Cassettes 20K MWCO, Thermo Scientific) was used to replace the outer aqueous phase of the liposome with a 10 mM L-histidine buffer/10% sucrose solution (pH 6.5) to obtain an empty liposome solution. The solution was filtered through a 0.22 μm membrane filter, and a 10 mM L-histidine buffer/10% sucrose solution (pH 6.5) was added to adjust the total lipid concentration to be 75 mM (75 μmol/mL) or 50 mM (50 μmol/mL). The prepared amount was increased or decreased appropriately.
2 to 3 mg of the test compound was weighed out. 1 mL of the empty liposome solution with a total lipid concentration of 50 mM was added. An aqueous 1 mol/L hydrochloric acid or 1 mol/L sodium hydroxide solution was added to adjust the pH to 5.5 to 7. […] Insoluble substances, when present, were removed by centrifugation for 5 minutes at 15,000× g.
The liposome encapsulation ratio was calculated as follows.
100 μL of liposome solution was passed through an ultrafiltration filter (Amicon Ultra, 100K, 0.5 mL, Merck), and centrifuged at 4° C. at 15,000×g for 10 minutes. The concentration of the compound in the filtrate after ultrafiltration was measured by HPLC as the unencapsulated compound concentration.
The liposome solution was diluted with a trifluoroacetic acid/water/methanol mixture (0.1/25/75) and was left standing for 10 minutes or longer at 5° C. The solution was centrifuged for 5 minutes at 15,000× g to remove insoluble substances. The compound concentration in the supernatant was measured by HPLC as the compound concentration in the liposome solution.
The encapsulation ratio and the encapsulation efficiency were calculated by the following equations.
HPLC measurement conditions are the following.

[4] = Pharmacokinetic test, intravenous administration to mice; format: in vivo; settings: female, BALB/c, mouse, plasma, liposome formulations, 1.0 mg/kg i.v., trapezoidal method, 0 hours to last quantifiable time
Protocol: Blood was collected over time up to 72 hours after administration from the jugular vein under no anesthesia.

[5] = target: hERG current (Homo sapiens (Human), UniProt Q12809); assay: cell-based
[6] = system: HT1080 cells; assay: Cell growth suppression test on various cancer cell lines: HT1080; format: cell-based; settings: Homo sapiens, HT-1080, 72 h; HT1080 (soft tissue sarcoma), cultured 3 days
Protocol: (§1) HT1080 cells (derived from soft tissue sarcoma) were cultured at 37° C. in the presence of 5% CO2 in an EMEM medium containing 10% fetal bovine serum and 1% penicillin/streptomycin. SJCRH30 cells (derived from soft tissue sarcoma) and BxPC3 cells (derived from pancreatic cancer) were cultured at 37° C. in the presence of 5% C02 in a McCoy's 5a medium containing 10% fetal bovine serum and 1% penicillin/streptomycin. SW948 cells (derived from colon cancer) were cultured at 37° C. in air in a L-15 medium containing 10% fetal bovine serum and 1% penicillin/streptomycin.
(§2) The cells were seeded for each well in a 96-well plate at 70-90% confluency 96 hours after seeding, the evaluated compound was added to the final DMSO concentration of 0.1%, and the cells were cultured for 3 days. After completion of the culture, the cell viability rate was calculated using CellTiter-Glo (registered trademark) 3D Reagent (Promega, G968B).

[7] = system: BxPC3 cells; assay: Cell growth suppression test on various cancer cell lines: BxPC3; format: cell-based; settings: Homo sapiens, BXPC-3, 72 h; BxPC3 (pancreatic cancer), cultured 3 days
Protocol: as §1, §2

[8] = system: SJCRH30 cells; assay: Cell growth suppression test on various cancer cell lines: SJCRH30; format: cell-based; settings: 72 h; SJCRH30 (soft tissue sarcoma), cultured 3 days
Protocol: as §1, §2

[9] = system: SW948 cells; assay: Cell growth suppression test on various cancer cell lines: SW948; format: cell-based; settings: Homo sapiens, 72 h; SW948 (colon cancer), cultured 3 days
Protocol: as §1, §2

[10] = target: hERG (Homo sapiens (Human), UniProt Q12809); assay: in vitro; settings: CHO cells stably expressing hERG
hERG, sequence (Q12809 whole entry): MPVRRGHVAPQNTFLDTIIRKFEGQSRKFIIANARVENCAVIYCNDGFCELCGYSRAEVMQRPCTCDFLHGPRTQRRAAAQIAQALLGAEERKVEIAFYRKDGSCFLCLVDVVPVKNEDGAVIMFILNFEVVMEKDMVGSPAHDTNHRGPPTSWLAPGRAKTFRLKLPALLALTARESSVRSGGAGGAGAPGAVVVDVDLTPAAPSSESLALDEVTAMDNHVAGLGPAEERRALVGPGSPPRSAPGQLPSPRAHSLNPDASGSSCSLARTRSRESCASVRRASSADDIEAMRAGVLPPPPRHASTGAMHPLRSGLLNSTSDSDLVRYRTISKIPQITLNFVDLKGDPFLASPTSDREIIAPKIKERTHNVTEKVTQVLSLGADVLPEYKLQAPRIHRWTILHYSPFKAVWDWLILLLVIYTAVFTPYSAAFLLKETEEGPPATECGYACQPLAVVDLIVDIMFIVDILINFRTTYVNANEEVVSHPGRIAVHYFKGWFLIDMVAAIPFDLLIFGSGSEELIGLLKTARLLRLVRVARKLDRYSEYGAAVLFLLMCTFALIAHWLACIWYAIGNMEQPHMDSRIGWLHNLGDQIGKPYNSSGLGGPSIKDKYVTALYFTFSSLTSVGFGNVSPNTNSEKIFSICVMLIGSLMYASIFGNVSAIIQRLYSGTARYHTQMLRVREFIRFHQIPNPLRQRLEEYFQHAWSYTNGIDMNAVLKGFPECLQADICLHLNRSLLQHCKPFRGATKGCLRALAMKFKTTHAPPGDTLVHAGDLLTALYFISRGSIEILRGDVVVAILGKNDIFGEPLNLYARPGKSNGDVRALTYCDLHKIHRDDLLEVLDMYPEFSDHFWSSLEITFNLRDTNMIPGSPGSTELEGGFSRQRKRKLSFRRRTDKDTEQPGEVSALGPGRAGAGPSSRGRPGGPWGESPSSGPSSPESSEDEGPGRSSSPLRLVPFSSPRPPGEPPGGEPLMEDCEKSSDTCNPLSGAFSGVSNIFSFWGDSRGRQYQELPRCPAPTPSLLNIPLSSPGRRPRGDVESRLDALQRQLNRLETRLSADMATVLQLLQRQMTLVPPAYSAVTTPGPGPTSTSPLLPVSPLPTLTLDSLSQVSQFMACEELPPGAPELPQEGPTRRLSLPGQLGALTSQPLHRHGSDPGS

hERG current, sequence (Q12809 whole entry): as above
CHK1 kinase, sequence (O14757 whole entry): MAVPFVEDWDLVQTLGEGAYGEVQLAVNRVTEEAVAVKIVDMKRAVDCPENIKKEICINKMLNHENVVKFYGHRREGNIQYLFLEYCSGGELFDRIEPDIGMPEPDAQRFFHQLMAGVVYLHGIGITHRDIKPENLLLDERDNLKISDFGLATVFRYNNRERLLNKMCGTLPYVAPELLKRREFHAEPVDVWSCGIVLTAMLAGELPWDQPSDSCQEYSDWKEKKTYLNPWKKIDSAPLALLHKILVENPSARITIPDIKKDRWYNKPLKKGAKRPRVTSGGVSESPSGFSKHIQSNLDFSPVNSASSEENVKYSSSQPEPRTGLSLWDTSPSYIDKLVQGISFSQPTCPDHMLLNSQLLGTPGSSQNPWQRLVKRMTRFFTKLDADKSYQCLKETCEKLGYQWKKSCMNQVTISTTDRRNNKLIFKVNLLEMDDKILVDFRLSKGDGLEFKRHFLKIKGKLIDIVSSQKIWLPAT

Structure (SMILES)	IC50 [1]	IC50 [2]	Compound concentration in liposome solution [3]	Encapsulation ratio [3]	AUC(0-t) [4]	IC50 [5]	IC50 [6]	IC50 [7]	IC50 [8]	IC50 [9]	selectivity ratio [10]
N#Cc1cnc(Nc2cc(-c3c(OCCCN)ccc4ccnn34)[nH]n2)cn1 [Example 6, 5-({5-[6-(3-aminopropoxy)pyrazolo[1,5-a]pyridin-7-yl]-1H-pyrazol-3-yl}amino)pyrazine-2-carbonitrile]	0.21 nM	6.24 nM	1880 µg/mL	100.0%	430 µg·h/mL	1300 nM					
N#Cc1cnc(Nc2cc(-c3c(OCCCN)cnc4cccnc34)[nH]n2)cn1 [Example 8, 5-({5-[3-(3-aminopropoxy)-1,5-naphthyridin-4-yl]-1H-pyrazol-3-yl}amino)pyrazine-2-carbonitrile]	0.5 nM	7.02 nM					9.1 nM	7 nM	< 3 nM	22.3 nM	
N#Cc1cnc(Nc2cc(-c3c(OC[C@@H]4CNCCO4)cnc4cccnc34)[nH]n2)cn1 [Example 12]	0.38 nM	23.2 nM				1000 nM					
N#Cc1cnc(Nc2cc(-c3c(OCC4(CN)CC4)cnc4c3OCC4)[nH]n2)cn1 [Example 14, 5-{[5-(6-{[1-(aminomethyl)cyclopropyl]methoxy)-2,3-dihydrofuro[3,2-b]pyridin-7-yl)-1H-pyrazol-3-yl]amino}pyrazine-2-carbonitrile]	0.27 nM	3.72 nM	1940 µg/mL	99.9%	397 µg·h/mL	> 10000 nM					≥ 800
N#Cc1cnc(Nc2cc(-c3c(O[C@@H]4CCC[C@H](N)C4)cnc4c3OCC4)[nH]n2)cn1 [Example 24, 5-{[5-(6-{[(1R,3S)-3-aminocyclohexyl]oxy}-2,3-dihydrofuro[3,2-b]pyridin-7-yl)-1H-pyrazol-3-yl]amino}pyrazine-2-carbonitrile]	0.31 nM	12.7 nM				4800 nM					
C[C@H](CN)COc1cnc2c(c1-c1cc(Nc3cnc(C#N)cn3)n[nH]1)OCC2 [Example 28, 5-[(5-{6-[(2R)-3-amino-2-methylpropoxy]-2,3-dihydrofuro[3,2-b]pyridin-7-yl}-1H-pyrazol-3-yl)amino]pyrazine-2-carbonitrile]	0.43 nM	6.4 nM					< 3 nM	< 3 nM	< 3 nM	5 nM	
N#Cc1cnc(Nc2cc(-c3c(O[C@H]4C[C@H](N)[C@H]5C[C@H]54)cnc4c3OCC4)[nH]n2)cn1 [Example 29, 5-{[5-(6-{[(1R,2S,4S,5S)-4-aminobicyclo[3.1.0]hexan-2-yl]oxy)-2,3-dihydrofuro[3,2-b]pyridin-7-yl)-1H-pyrazol-3-yl]amino}pyrazine-2-carbonitrile]	0.33 nM	29.4 nM				> 10000 nM					
N#Cc1cnc(Nc2cc(-c3c(OCC4(F)CNC4)cnc4cccnc34)[nH]n2)cn1 [Example 35, 5-[(5-{3-[(3-fluoroazetidin-3-yl)methoxy]-1,5-naphthyridin-4-yl}-1H-pyrazol-3-yl)amino]pyrazine-2-carbonitrile]	0.6 nM	8 nM				> 10000 nM					≥ 800
COc1cccc(OCCCN)c1-c1cc(Nc2cnc(C#N)cn2)n[nH]1 [Prexasertib, reference compound]		8.55 nM	2160 µg/mL				14.9 nM	9.5 nM	4.9 nM	38.9 nM	
